{"source": "patent US20040087480A1", "about": "“Calcium channel target for controlling epidermal keratinocyte growth in psoriasis, and basal and squamous cell carcinomas” (Fujisawa Pharmaceutical Co. Ltd., priority 2002, published 2004)", "key": {"[1]": {"test_system": "hECaC1", "experiment": "Quantitative PCR of hECaC1 expression in cultured human keratinocytes", "format": "cell-based", "conditions": "up to 3 days treatment with 2 mM calcium or 1 μM VitD", "source_text": "(§1) There is currently no published data on expression of either hECaC1 or hECaC2 in either primary human keratinocytes or human skin, although murine ECaC2 expression has been reported for mouse skin (Weber et al, 2001 Biochem Biophys Res Commun 289:1287-1294). Therefore, the inventors investigated if keratinocytes expressed either or both ECaC channels, and whether expression of these channels was correlated with cell differentiation stimulated by either calcium or VitD. […] However, hECaC2 expression was readily detected in these same cultures. At 1 and 3 days of culture hECaC2 expression levels were 0.014±0.002% and 0.005±0.0005% of GAPDH (N=3). […] Therefore, the observed absence of hECaC1 expression in keratinocytes was indeed due to the mRNA for this gene being at levels so low that they were undetectable.\n(§2) The effects of elevated calcium or VitD on expression of hECaC1 or 2 in cultured keratinocytes were investigated. […] After 1 day in 2 mM calcium there was a small but consistent decrease in hECaC2 expression, which averaged approximately 85% of the untreated control."}, "[2]": {"test_system": "hECaC2", "experiment": "Quantitative TaqMan PCR of hECaC2 mRNA (normalized to GAPDH) in cultured human epidermal keratinocytes", "format": "cell-based", "conditions": "for increase in hECaC2 expression: 2 mM calcium and/or 1 μM VitD, relative to untreated, time-matched cultures", "experimental": "Quantitative, TaqMan-based PCR was used to assess changes in mRNA levels for hECaC2 (normalized to GAPDH) from keratinocyte cultures grown in 2 mM calcium or 1 μM VitD over 1 and 3 days. mRNA levels are expressed as fold-changes versus levels measured in sibling cultures grown for 1 and 3 days in basal calcium (0.06 mM) and no VitD. VitD caused greater increases in hECaC2 expression than did calcium. […] Note differences in scaling of y-axes. All increases are significant from control with the exception of calcium at 1 day. Results are mean-±SEM from three experiments.\nas §1, §2"}, "[3]": {"test_system": "murine ECaC1 or 2", "conditions": "including in skin; Weber et al, 2001; cited from earlier work"}, "[4]": {"test_system": "hECaC1", "conditions": "1 μM VitD, cultured skin biopsies", "experimental": "The effect of VitD on gene expression in cultured biopsies was assessed by comparing mRNA levels in the treated biopsies to levels in untreated biopsies cultured for the same number of days (FIG. 4)."}, "[5]": {"test_system": "hECaC2", "experiment": "Quantitative PCR of hECaC2 mRNA in cultured human skin biopsies (explant culture)", "format": "cell-based", "conditions": "1 μM VitD in culture medium (1.4 mM calcium), versus untreated biopsies cultured the same number of days", "experimental": "Skin biopsies were taken from healthy donors and cultured for the indicated times with 1 μM VitD or with vehicle added to the culture medium. mRNA levels for hECaC2 were measured by quantitative PCR, normalized to GAPDH, and fold changes in expression were calculated relative to vehicle treated controls. Results are mean±SEM from two experiments.\nThe effect of VitD on hECaC2 expression in skin explants over time in culture was next examined, but the dynamics of gene expression in this system had to first be defined. All experiments with explant, cultured skin biopsies were performed in medium containing 1.4 mM calcium, a requirement for long-term viability (Varani et al, 1993 Am J Pathol 142:189-198). Biopsies placed in RNALater at time of collection were used to define expression levels of these genes at “−1” days in culture. Biopsies for which RNA was extracted immediately upon arrival in the lab (after overnight shipping from the source) were designated as “0” days in culture. Data for days 1 and 3 are from biopsies which were then cultured in the lab. All biopsies for an experiment were from the same donor."}, "[6]": {"test_system": "hECaC2", "conditions": "Caco-2 cells; Wood et al, 2001; cited from earlier work"}}, "note": "“And” between values parts separate entries of the source, which are not always exact repeats. Equal entries are not always repeated."}
{"compound": "[Ca+2]", "note": "[calcium]", "values": [{"measurement": "hECaC1 expression", "setting": "[1]", "value": "not detected"}, {"measurement": "hECaC2 expression, % of the untreated control", "setting": "[2]; 1 day in 2 mM calcium", "value": "approximately 85%"}, {"measurement": "increase in hECaC2 expression", "setting": "[2]; 3 days treatment", "value": "approximately 3.8 fold"}]}
{"compound": "Vitamin D [VitD]", "values": [{"measurement": "murine ECaC1 or 2 expression response to VitD", "setting": "[3]", "value": "unresponsive"}, {"measurement": "hECaC1 expression", "setting": "[1]", "value": "not detected"}, {"measurement": "increase in hECaC2 expression", "setting": "[2]; 1 day treatment", "value": "63 fold and 60 fold"}, {"measurement": "increase in hECaC2 expression", "setting": "[2]; 3 days treatment", "value": 51, "unit": "fold"}, {"measurement": "hECaC1 expression in response to VitD", "setting": "[4]", "value": "nor was expression induced"}, {"measurement": "increase in hECaC2 expression", "setting": "[5]; 1 day", "value": 3.6, "unit": "fold"}, {"measurement": "increase in hECaC2 expression", "setting": "[5]; 3 days", "value": 7.8, "unit": "fold"}, {"measurement": "hECaC2 expression response to VitD", "setting": "[6]", "value": "upregulated"}]}
